The text below walks through data of ChEMBL document CHEMBL4152238, “Design, synthesis, structure-activity relationships and X-ray structural studies of novel 1-oxopyrimido[4,5-c]quinoline-2-acetic acid derivatives as selective and potent inhibitors of human aldose reductase” (Eur J Med Chem, 2018).

Experiment [1] can be described thus: Selectivity ratio of IC50 for N-terminal His10-tagged AKR1B10 (unknown origin) expressed in Escherichia coli BL21 to IC50 for […] AKR1B1 expressed in Escherichia coli BL21.
Experiment [2] addresses Aldo-keto reductase family 1 member B10 (Homo sapiens, UniProt O60218). The experiment in a line: Inhibition of N-terminal His10-tagged AKR1B10 (unknown origin) expressed in Escherichia coli BL21 using D,L-glyceraldehyde as substrate pretreated for 5 mins followed by substrate addition by spectrophotometric method.
Experiment [3] relates to HT-1080. The experiment in a line: Cytotoxicity against human HT1080 cells after 72 hrs by MTT assay. As to conditions: HT-1080, 72 h. The format is functional, cell-based. Background: Tetrazolium assays rely on reduction of a dye to a coloured formazan, in cell work by metabolically active cells.
The nature of experiment [4]: Inhibition of […] AKR1B1 expressed in Escherichia coli BL21 using D,L-glyceraldehyde as substrate pretreated for 5 mins followed by substrate addition by spectrophotometric method. As to conditions: for Ki: read-out: Ki(app).
Experiment [5] is filed under the species Cricetulus griseus. As to the kind of experiment: Inhibition of […] AKR1B1 expressed in Escherichia coli BL21 up to 10 uM using D,L-glyceraldehyde as substrate pretreated for 5 mins followed by substrate addition by spectrophotometric method.

Active and inactive are the calls of the source. The rule behind the calls is not given here. Where only a bound is given, the exact number is not on record here.

Chain of Aldo-keto reductase family 1 member B10 (O60218 whole entry): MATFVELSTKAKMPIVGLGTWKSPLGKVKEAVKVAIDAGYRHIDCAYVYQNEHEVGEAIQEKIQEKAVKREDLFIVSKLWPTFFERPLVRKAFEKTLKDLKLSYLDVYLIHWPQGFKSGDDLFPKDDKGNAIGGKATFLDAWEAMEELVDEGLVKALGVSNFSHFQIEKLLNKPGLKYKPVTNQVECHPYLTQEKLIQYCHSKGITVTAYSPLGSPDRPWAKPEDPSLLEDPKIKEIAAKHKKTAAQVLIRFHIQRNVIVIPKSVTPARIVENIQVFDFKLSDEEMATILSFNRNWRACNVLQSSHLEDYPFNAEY

In general, IC50 refers to the point on the concentration scale where inhibition reaches its midpoint. `COc1ccc2nc(-c3ccc(Cl)cc3)c3nc(C)n(CC(=O)O)c(=O)c3c2c1`: in experiment [1], the Ratio IC50 is 5. In addition, the figures for the IC50 in experiment [2], in experiment [3] and in experiment [4] were 15 µM, 86.7 µM and 3.14 µM, respectively.
On to `Nn1c(-c2ccc(Cl)cc2)nc2c(-c3ccc(Cl)cc3)nc3ccc(Cl)cc3c2c1=O`, for which the inhibition entry in experiment [5] is “inactive”.
Regarding `O=C(O)Cn1c(Cc2ccc(Cl)cc2)nc2c(-c3ccccc3)nc3ccccc3c2c1=O`, the Ratio IC50 in experiment [1] was found to be 9. Moreover, the values for the IC50 in experiment [2] and in experiment [4] were 5.87 µM and 0.66 µM, respectively.
On to `Nn1c(-c2ccc(Br)cc2)nc2c(-c3ccc(Br)cc3)nc3ccc(Cl)cc3c2c1=O`, for which the inhibition result in experiment [5] is “inactive”.
As to `CCc1nc2c(-c3ccc(Cl)cc3)nc3ccccc3c2c(=O)n1CC(=O)O`, in experiment [1], the Ratio IC50 amounted to 39. Further, the results for the IC50 in experiment [2] and in experiment [4] were 4.71 µM and 0.12 µM, respectively. The Ki in experiment [4] came to 0.073 µM.
Turning to `Cc1ccc2nc(-c3ccc(Cl)cc3)c3nc(C)n(CC(=O)O)c(=O)c3c2c1`, in experiment [1], the Ratio IC50 turned out to be 6. Also, the IC50 in experiment [2] is 28.5 µM; in experiment [3], over 100 µM; in experiment [4], 4.92 µM.
For `Cc1nc2c(-c3ccc(Br)cc3)nc3ccc(Cl)cc3c2c(=O)n1CC(=O)O` the same measures were 7, 13.8 µM, over 100 µM and 1.92 µM.
As for `CCc1nc2c(-c3ccc(Cl)cc3)nc3ccc(F)cc3c2c(=O)n1CC(=O)O`, the Ratio IC50 in experiment [1] was found to be 9. Moreover, the IC50 in experiment [2] came out at 3.89 µM. Moreover, in experiment [4], the IC50 was found to be 0.41 µM and the Ki was determined as 0.5 µM.
With `O=C(O)Cn1c(Cc2ccccc2)nc2c(-c3ccc(Cl)cc3)nc3ccccc3c2c1=O`, the Ratio IC50 in experiment [1] is 1. For the same compound, the IC50 in experiment [2] worked out at 2.35 µM; in experiment [4], 2.65 µM.
On to `Cc1nc2c(-c3ccc(Cl)cc3)nc3ccccc3c2c(=O)n1CC(=O)O`, for which the Ratio IC50 in experiment [1] was 37. For the same compound, the results for the IC50 in experiment [2], in experiment [3] and in experiment [4] were 7.86 µM, over 100 µM and 0.21 µM, respectively. Also, the Ki in experiment [4] is 0.13 µM.
For the compound `COc1ccc(-c2nc3ccc(Cl)cc3c3c(=O)n(CC(=O)O)c(C)nc23)cc1`, the Ratio IC50 in experiment [1] was determined as 22. The IC50 is 17 µM in experiment [2], 78.1 µM in experiment [3] and 0.76 µM in experiment [4].
As to `Cc1nc2c(-c3ccc(Br)cc3)nc3ccccc3c2c(=O)n1CC(=O)O`, in experiment [1], the Ratio IC50 is 50. For the same compound, the values for the IC50 in experiment [2], in experiment [3] and in experiment [4] were 10 µM, over 100 µM and 0.2 µM, respectively. Also, the Ki in experiment [4] was 0.15 µM.
Turning to `Cc1nc2c(-c3ccc(Br)cc3)nc3ccc(Br)cc3c2c(=O)n1CC(=O)O`, in experiment [1], the Ratio IC50 was found to be 10. Besides, the IC50 in experiment [2] was 16.3 µM; in experiment [3], over 100 µM; in experiment [4], 1.57 µM.
As for `Cc1nc2c(-c3ccc(Cl)cc3)nc3ccc(Br)cc3c2c(=O)n1CC(=O)O`, the Ratio IC50 in experiment [1] was determined as 8. In addition, the figures for the IC50 in experiment [2], in experiment [3] and in experiment [4] were 17.8 µM, over 100 µM and 2.22 µM, respectively.
As to `O=C(O)Cn1c(Cc2ccc(Cl)cc2)nc2c(-c3ccc(Cl)cc3)nc3ccccc3c2c1=O`, the Ratio IC50 in experiment [1] was 3. Besides, the IC50 in experiment [2] amounted to 2.99 µM; in experiment [4] it was 1.01 µM.
As to `Cc1nc2c(-c3ccccc3)nc3ccccc3c2c(=O)n1CC(=O)O`, the Ratio IC50 in experiment [1] was 14. Moreover, in experiment [2], the IC50 amounted to 6.39 µM. Besides, in experiment [4], the IC50 was 0.43 to 0.46 µM and the Ki was found to be 0.44 µM.
Turning to `Cc1nc2c(-c3ccc(Cl)cc3)nc3ccc(F)cc3c2c(=O)n1CC(=O)O`, the Ratio IC50 in experiment [1] is 23. Moreover, the IC50 is 8.18 µM in experiment [2], over 100 µM in experiment [3] and 0.35 µM in experiment [4]. The Ki in experiment [4] was 0.24 µM.
On to `CCCc1nc2c(-c3ccc(Cl)cc3)nc3ccccc3c2c(=O)n1CC(=O)O`, for which the Ratio IC50 in experiment [1] came to 18. Moreover, the IC50 in experiment [2] stood at 3.33 µM. Further, in experiment [4], the IC50 was determined as 0.19 µM and the Ki worked out at 0.13 µM.
Consider `Cc1nc2c(-c3ccc(Br)cc3)nc3ccc(F)cc3c2c(=O)n1CC(=O)O`, for which the Ratio IC50 in experiment [1] turned out to be 17. For the same compound, the figures for the IC50 in experiment [2], in experiment [3] and in experiment [4] were 9.61 µM, over 100 µM and 0.57 µM, respectively.
As for `COc1ccc(-c2nc3ccc(F)cc3c3c(=O)n(CC(=O)O)c(C)nc23)cc1`, the Ratio IC50 in experiment [1] was determined as 38. Moreover, the IC50 in experiment [2] is 10 µM; in experiment [3] it was over 100 µM; in experiment [4], 0.26 µM. In addition, the Ki in experiment [4] was 0.24 µM.
Turning to `Cc1nc2c(-c3ccc(Cl)cc3)nc3ccc(Cl)cc3c2c(=O)n1CC(=O)O`, in experiment [1], the Ratio IC50 came out at 6. In addition, the IC50 in experiment [2] is 9.61 µM; in experiment [3], 30.2 µM; in experiment [4], 1.54 µM.
`COc1cccc2c1C(=O)c1c(O)c3c(c(O)c1C2=O)C[C@@](O)(C(=O)CO)C[C@@H]3O[C@H]1C[C@H](N)[C@H](O)[C@H](C)O1` [DOXORUBICIN] gave an IC50 in experiment [3] of 0.0058 µM.
